Values of other authors, collected in US7442834B2, “Process suitable for industrial scale production of gabapentin” (priority 2006, dated 2008).

Assays:
[1] = in vivo
[2] = from U.S. Pat. No. 6,518,456

Q: For `O=C1CC2(CCCCC2)CN1` [IV, 3,3-pentamethylenebutyrolactam], which “LD50 (cytotoxicity)” value [1] is on record?
A: Its value is 300 mg/kg.

Q: Which results are given for `NCC1(CC(=O)O)CCCCC1` [gabapentin (I), 1-(aminomethyl)-1-cyclohexaneacetic acid]?
A: isoelectric point (pH) [2]: 7.1-7.2; LD50 (cytotoxicity) [1]: > 8000 mg/kg
